Consider two compounds from article PMC7076388 (Pharmaceutics, 2020).

Data set [1] has as its system RAW 264.7 cells. Details: method as in PMID 30987203. The note with it: up to 100 µM, 24 h, MTT; cited from earlier work.
For data set [2], the target named is T1, COX-2 (Homo sapiens, UniProt P35354).
T1 construct: purchased Cayman Chemical
T1 sequence (P35354 18-604): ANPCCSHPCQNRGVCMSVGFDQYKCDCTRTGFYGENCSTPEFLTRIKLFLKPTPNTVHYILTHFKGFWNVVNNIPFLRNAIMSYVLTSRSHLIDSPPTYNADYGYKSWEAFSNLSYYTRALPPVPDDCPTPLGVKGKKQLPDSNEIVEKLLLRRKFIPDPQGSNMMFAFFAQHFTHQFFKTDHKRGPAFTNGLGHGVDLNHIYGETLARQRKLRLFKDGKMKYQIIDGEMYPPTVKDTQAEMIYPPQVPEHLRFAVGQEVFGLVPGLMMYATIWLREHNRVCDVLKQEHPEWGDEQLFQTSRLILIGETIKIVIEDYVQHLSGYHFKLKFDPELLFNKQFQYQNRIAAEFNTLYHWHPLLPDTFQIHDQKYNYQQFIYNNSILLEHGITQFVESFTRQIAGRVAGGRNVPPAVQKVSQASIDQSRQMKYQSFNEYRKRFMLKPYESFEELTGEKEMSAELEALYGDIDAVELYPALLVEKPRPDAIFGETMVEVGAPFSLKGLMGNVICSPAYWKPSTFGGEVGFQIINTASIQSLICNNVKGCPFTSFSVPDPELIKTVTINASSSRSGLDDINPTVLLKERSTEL
On the set-up: method as in PMID 30987203. The note with it: 25 µM; low selectivity towards COX-2; cited from earlier work.

In data set [3] the target is T2, LOX from glycine max (soybean) (Glycine max, UniProt P08170).
T2 construct: purchased Sigma-Aldrich
T2 sequence (P08170 1-839): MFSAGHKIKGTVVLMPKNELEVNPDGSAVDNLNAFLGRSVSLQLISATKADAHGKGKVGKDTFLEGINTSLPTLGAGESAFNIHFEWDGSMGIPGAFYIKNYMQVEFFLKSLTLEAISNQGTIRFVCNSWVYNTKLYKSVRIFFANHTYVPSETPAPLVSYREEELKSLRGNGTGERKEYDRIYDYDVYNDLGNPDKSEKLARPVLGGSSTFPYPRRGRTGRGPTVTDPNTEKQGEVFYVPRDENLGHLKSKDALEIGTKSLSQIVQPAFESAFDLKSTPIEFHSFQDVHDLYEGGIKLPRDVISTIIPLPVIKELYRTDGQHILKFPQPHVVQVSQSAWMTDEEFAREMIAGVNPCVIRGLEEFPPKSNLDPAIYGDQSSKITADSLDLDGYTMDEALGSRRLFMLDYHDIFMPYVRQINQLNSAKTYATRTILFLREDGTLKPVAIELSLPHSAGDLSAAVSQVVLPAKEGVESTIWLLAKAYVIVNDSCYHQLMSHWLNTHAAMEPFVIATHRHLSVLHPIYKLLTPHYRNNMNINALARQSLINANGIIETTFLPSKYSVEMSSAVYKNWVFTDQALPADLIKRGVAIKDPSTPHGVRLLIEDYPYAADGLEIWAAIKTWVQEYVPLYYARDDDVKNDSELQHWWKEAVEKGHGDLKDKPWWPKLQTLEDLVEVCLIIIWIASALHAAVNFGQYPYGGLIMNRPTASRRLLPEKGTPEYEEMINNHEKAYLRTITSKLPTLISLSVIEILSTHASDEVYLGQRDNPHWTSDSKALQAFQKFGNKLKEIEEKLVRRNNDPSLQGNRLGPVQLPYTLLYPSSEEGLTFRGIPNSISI
Details: method as in PMID 30987203. The note with it: 100 µM; cited from earlier work.

Data set [4] addresses T2, LOX from glycine max (soybean). Put plainly: Lipoxygenase glycine max (soybean) assay. The format is biochemical. The note with it: dose-response assay; read-out: IC50 for LOX inhibition. Here is the method:
The inhibitory effect on LOX was assessed in 96-well plates, using a modified version of a previously reported procedure from Pereira et al.. […] After 5 min pre-incubation at room temperature, the reaction was started by addition of linoleic acid substrate (20 µL of a 4.18 mM solution in ethanol). The reaction was monitored at 234 nm using a multiplate reader (Multiskan Thermo Fisher Scientific Oy, Vantaa, Finland), for 3 min.

For data set [5], the system named is AGS cells. In words: MTT cell viability, AGS cells. Type of data set: cell-based. The conditions noted are these: 100 µM, 24 h. On the procedure:
Adenocarcinoma gastric cells (AGS; Sigma-Aldrich, St. Louis, MO, USA), murine-macrophage cell line (RAW 264.7; American Type Culture Collection, LGC Standards S.L.U., Barcelona, Spain), and human foetal lung fibroblasts (MRC-5; ECACC, Porton Down Salisbury, UK) were cultured as a monolayer at 37 °C in a humidified incubator with 5% carbon dioxide. AGS and RAW 264.7 cells were grown in DMEM, supplemented with 1% streptomycin/penicillin and 10% FBS (Gibco®). MRC-5 cells were grown in MEM, supplemented with 1% streptomycin/penicillin and 10% FBS.
Cell viability was evaluated by the MTT reduction assay. Cells were cultured in 96-well plates (15,000 cells/well for AGS, 25,000 cells/well for RAW and 20,000 cells/well for MRC-5) and allowed to attach for 24 h. After incubation with compounds for 24 h, MTT (0.5 mg/mL final concentration) was added to each well and the plate was incubated for 75 min at 37 °C. Formazan crystals were dissolved by the addition of a DMSO: isopropanol mixture (3:1) and then quantified spectrophotometrically at 570 nm using a microplate reader (Multiskan Thermo Fisher Scientific Oy, Vantaa, Finland).

In data set [6] the target is T3, COX-1 (Ovis aries, UniProt P05979).
T3 construct: purchased Cayman Chemical
T3 sequence (P05979 25-600): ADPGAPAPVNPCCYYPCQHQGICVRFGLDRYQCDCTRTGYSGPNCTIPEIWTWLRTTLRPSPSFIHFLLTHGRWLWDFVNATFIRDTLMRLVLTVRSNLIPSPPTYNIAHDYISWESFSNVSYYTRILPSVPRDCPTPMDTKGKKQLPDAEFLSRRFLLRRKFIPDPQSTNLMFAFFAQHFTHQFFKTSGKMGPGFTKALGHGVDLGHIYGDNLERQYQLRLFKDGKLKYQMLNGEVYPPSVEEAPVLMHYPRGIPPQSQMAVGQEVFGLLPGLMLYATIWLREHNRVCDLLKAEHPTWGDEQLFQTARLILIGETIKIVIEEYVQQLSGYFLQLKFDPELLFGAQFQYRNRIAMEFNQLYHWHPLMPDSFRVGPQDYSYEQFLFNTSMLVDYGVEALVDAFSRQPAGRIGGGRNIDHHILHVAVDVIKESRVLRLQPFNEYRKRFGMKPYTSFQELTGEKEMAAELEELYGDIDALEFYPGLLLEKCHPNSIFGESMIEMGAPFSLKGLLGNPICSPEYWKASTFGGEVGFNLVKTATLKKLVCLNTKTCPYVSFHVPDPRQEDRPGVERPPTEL
On the set-up: method as in PMID 30987203. The conditions noted are these: 25 µM; cited from earlier work.

Data set [7] relates to LPS-induced •NO production in RAW 264.7 cells. The conditions noted are these: preliminary study; cited from earlier work.
Data set [8] has as its target T3, COX-1. Put plainly: COX fluorescent inhibitor screening assay, COX-1. The format is biochemical. On the procedure:
(§1) The assay was performed using the COX fluorescent inhibitor screening assay kit (Cayman chemical, MI, USA), with some modifications. […] After 5 min of incubation at room temperature, 5 µL of 10-acetyl-3,7-dihydroxyphenoxazine (ADHP) and 20 µL of a solution containing arachidonic acid (0.5 mM) and KOH (2.5 mM) were added to each well.

Data set [9] has as its target 20S proteasome isolated from erythrocytes (Homo sapiens, UniProt P28074). The note with it: reported in literature; cited from earlier work.
The target in data set [10] is T1, COX-2. Put plainly: COX fluorescent inhibitor screening assay, COX-2. Type of data set: biochemical. Here is the method:
as §1

pIC50: −log10 of the molar value. Entries after “also recorded” stand apart in the source; their conditions may differ.

As usually defined, the pIC50 is the negative decadic logarithm of the IC50, by convention in mol/L. Turning to `COC(=O)C(=Cc1ccccc1)NC(=O)C(CC(=O)O)NC(=O)C(C)c1ccc2cc(OC)ccc2c1` [Compound 2, Npx-L-Asp-Z-ΔPhe-OMe], in [1], the “cytotoxic effect on RAW 264.7 viability” value was “did not show any statistically significant cytotoxic effects”. In addition, the “COX inhibition level (COX-2)” value in data set [2] was “modest levels of COX inhibition”. The “LOX inhibition at single concentration” value in data set [3] was “significantly inhibit the LOX enzyme to a similar level to naproxen; also recorded: high levels of lipoxygenase (LOX) inhibition”. Moreover, the pIC50 in data set [4] was 4.17. Also, in data set [5], the “toxicity towards AGS cells” value is “slightly cytotoxic”. In [6], the “COX inhibition level (COX-1)” value is recorded as “modest levels of COX inhibition”. For the same compound, the “inhibition of LPS-induced production of •NO” value in data set [7] is given as “modest ability to inhibit”.

The inhibition is how much of the control response was suppressed. Lower therefore signals little suppression. As for `COc1ccc2cc([C@H](C)C(=O)O)ccc2c1` [Naproxen, reference compound], the inhibition at 25 µM in [8] was found to be 42.3%; in data set [10] it was 61.5%. Besides, in data set [9], the proteasome inhibition result is “not be an inhibitor of proteasome”.
